Legend:
Primula melacoides = assay: Growth promotion effect on Primula melacoides; assay type: in vivo; conditions: 80 μM aqueous solution, five consecutive days then once a week for six weeks; six-and-a-half months after last spraying; FIG. 9
Protocol: One-and-a-half months after seeding of Primula melacoides, spraying of an 80 μm specific ketol fatty acid (I) aqueous solution was carried out for five consecutive days. Furthermore, four months after the start of the test, spraying of an 80 μM specific ketol fatty acid (I) aqueous solution was carried out for six weeks (once a week). Bolting was not observed at a nutrition growth stage of the Primula melacoides. Six-and-a-half months after the last spraying, the plant width and the leave size were measured.

cyclamen = assay: Growth promotion effect on cyclamen; assay type: in vivo; conditions: 50 μm aqueous solution sprayed five consecutive days, four months after seeding; observed for 48 days; FIG. 5
Protocol: Four months after seeding of cyclamen, spraying of a 50 μm specific ketol fatty acid (I) aqueous solution was carried out for five consecutive days. […] The plant width and the number of leaves were both increased.

[1] = test system: hyphae of P. citrinopileatus; assay: Effect of proliferating hyphae of P. citrinopileatus Sing.; assay type: cell-based, Pleurotus citrinopileatus Sing.; conditions: 10 μM, 30 μM, 100 μm in potato-dextrose-agar medium; 37° C.; FIG. 15
Protocol: A potato-dextrose-agar culture medium was sterilized by use of an autoclave. After the medium was cooled to a temperature at which the agar was not solidified, a 1 mM specific ketol fatty acid (I) aqueous solution which had been sterilized by use of a membrane filter was added to the medium, to thereby prepare four culture media; i.e., a culture medium containing 0 μM of the fatty acid (I), a culture medium containing 10 μM of the fatty acid (I), a culture medium containing 30 μM of the fatty acid (I), and a culture medium containing 100 μm of the fatty acid (I). Each of the culture media was solidified in a 10-cm plate, and then hyphae of P. citrinopileatus (one platinum loop) was inoculated on the medium. Subsequently, the hyphae were cultured at 37° C., and proliferation of the hyphae was observed (10 plates for each group). Proliferation of the hyphae was evaluated on the basis of the average of the diameters of the proliferated hyphae on the plate.

strawberry seedlings = assay: Plant dormancy preventive test on strawberry; assay type: in vivo
Protocol: When strawberry seedlings are exposed directly to low temperature conditions in winter, the seedlings enter dormancy, and growth of the seedlings is stopped. Whether or not the present plant activator exerts the effect of preventing dormancy was evaluated.
Specific ketol fatty acid (I) aqueous solutions [concentration: 10 μM, 100 μM, and 0 μM (control)] were applied through spraying to strawberry seedlings on August 27 (at day 0), September 3, and September 8. […] In the control group, no flower bud formation was observed.
At the one hundred and eighth day, percent dormancy (percentage of dormant plants—which are plants in which growth of small leaf buds with markings is not observed 15 days after a marking was applied to the leaf buds—with respect to the entirety of the test plants) was measured. As a result, in the control group, dormancy of the entire plants was observed.

[2] = test system: morning glory (variety: murasaki); assay: Growth promotion effect on morning glory; assay type: in vivo; conditions: 100 μm aqueous solution sprayed; measured on the 16th day; N=8; FIG. 1
Protocol: Seeds of morning glory (variety: murasaki) (9 g) were subjected to concentrated sulfuric acid treatment for 20 minutes, and then allowed to stand under water flow overnight. Subsequently, the seeds were placed on wet sea sand such that the hila of the seeds were directed upward for 24 hours, to thereby produce roots. The seeds having roots were planted in sea sand at a position 1.5-2.0 cm below the surface of the sand, and then cultured under continuous light irradiation (for about five days).
The entire plant bodies of the morning glory having leaves produced through this culture were transferred into a culture solution [KNO2 (250 mg), NH4NO2 (250 mg), KH2PO4 (250 mg), MgSO4.7H2O (250 mg), MnSO4.4H2O (1 mg), Fe-citrate n-hydrate (6 mg), H3BO3 (2 mg), CuSO4.5H2O (0.1 mg), ZeSO4.7H2O (0.2 mg), Na2MoO4.2H2O (0.2 mg), and Ca(H2PO4)22H2O (250 mg) in distilled water (1,000 mL)].
Water or a 100 μm specific ketol fatty acid (I) aqueous solution was sprayed to the cultured morning glory, which was then placed in the dark overnight (for 14 hours). Thereafter, the morning glory was grown under continuous light irradiation at 25° C. for 16 days, and on the 16th day the height of the plant was measured (N=8). The average of the heights of the plants is shown in FIG. 1 [note: “I” shown in FIG. 1 refers to “specific ketol fatty acid (I)”; the same shall apply to the below-described Figs.].

digitalis = assay: Growth promotion effect on digitalis; assay type: in vivo; conditions: 80 μm aqueous solution, five consecutive days then once a week for six weeks; five-and-a-half months after spraying; FIG. 6
Protocol: Two weeks after seeding of digitalis, spraying of an 80 μm specific ketol fatty acid (I) aqueous solution was carried out for five consecutive days. Furthermore, three months after the start of the test; spraying of an 80 μm specific ketol fatty acid (I) aqueous solution was carried out for six weeks (once a week). Five-and-a-half months after the six-week spraying, the size of leaves and the plant height were measured.

Seeds of lettuce = assay: Dry stress suppressive effect on lettuce seeds (germination); assay type: in vivo; conditions: for Number of germinated seeds: 50 seeds per group; for Germination rate (%: n = 50): seeds immersed 72 hours, dried in air 48 hours
Protocol: Seeds of lettuce (50 seeds per test group) were immersed in specific ketol fatty acid (I) aqueous solutions [concentration: 2 μM, 10 μM, 20 μM, and 0 μM (control)] for 72 hours, and dried in air for 48 hours. The resultant seeds were disposed on water-containing filter paper, and allowed to germinate. In each test group, germination rate—percentage (%) of germinated seeds with respect to the entirety of seeds—was obtained.

broad bean = assay: Growth promotion effect on broad bean; assay type: in vivo; conditions: 50 μm aqueous solution sprayed five consecutive days
Protocol: One month after seeding of broad bean, spraying of a 50 μm specific ketol fatty acid (I) aqueous solution was carried out for five consecutive days, and growth of the broad bean (plant width) was observed.

## CC/C=C\C/C=C\CC(=O)C(O)CCCCCCCC(=O)O (stereo not shown) [specific ketol fatty acid (I), 9-hydroxy-10-oxo-12(Z),15(Z)-octadecadienoic acid]
Primula melacoides
  leave size: increased
  plant width: increased
cyclamen
  number of leaves: increased
  plant width: increased
[1]
  degree of proliferation of the hyphae (average diameter on plate): dependent on the concentration
Strawberry seedlings; 10 μM and 100 μM aqueous solutions sprayed three times, cultured outdoors
  formation of flower buds: flower bud formation proceeded, and the number of flowers increased
Strawberry seedlings; 10 μM and 100 μM sprayed, at the one hundred and eighth day, FIG. 14
  percent dormancy: dormancy of strawberry was prevented
Strawberry seedlings; 10 μm vs 100 μM, FIG. 14
  dormancy preventive effect, low vs high concentration: more significant in the group in which the specific ketol fatty acid (I) of low concentration (10 μm) was applied
[2]
  height of the plant: becomes larger
digitalis
  plant height: increased
  size of leaves: increased
Seeds of lettuce; 2 μM
  Number of germinated seeds: 43
  Germination rate (%: n = 50): 86%
Seeds of lettuce; 10 μM
  Number of germinated seeds: 49
  Germination rate (%: n = 50): 98%
Seeds of lettuce; 20 μM
  Number of germinated seeds: 45
  Germination rate (%: n = 50): 90%
Broad bean
  duration of growth promotion effect: maintained 48 days after the start of the test
Broad bean; one month after seeding, FIG. 3
  growth of the broad bean (plant width): exerts the effect of promoting growth of the broad bean

— patent publication US8318638B2, “Plant activator” (Shiseido Company, Ltd., priority 1999, dated 2012)
